From US12251449B2, “Synthetic multidomain peptide biomaterials that inhibit inducible nitric oxide synthase” (William Marsh Rice University, priority 2019, dated 2025)
Values joined by “and” are separate entries in the source; they are usually repeats but may differ in a detail not shown here. Equal entries are not always repeated. *1 amine or outer side, *2 acyl side, *3 side chain or, on linkers, in order; H or OH if unused. Where a SMILES comes first, the peptide text is derived from it. [ ]: non-standard residue; d: D form. X1 = CC(=N)NCCCC[C@H](N[*:1])C(=O)[*:2]

Experiments:
[1] = Oscillatory rheology of peptide hydrogels; assay type: physicochemical; conditions: hydrogel at 1 wt. % in HBSS with sucrose
Protocol: Oscillatory rheology. Peptide hydrogels were analyzed for their mechanical properties by oscillatory rheology using a TA Instruments AR-G2 rheometer (TA Instruments, New Castle, DE). Samples of 150 μL of 1 wt. % MDP hydrogels were prepared 24 hours prior to use for rheology, to allow full equilibration of the material. Gel samples were then transferred from a cut syringe onto the rheometer stage equipped with a 12 mm stainless-steel parallel plate set to a […] gap height. The following program was used to monitor the storage modulus (G′) and loss modulus (G″) under various conditions as has been previously published (Li & Hartgerink, 2017). Strain sweep analysis was performed using an applied strain of 0.01-200% at a frequency of 1 rad/s. Frequency sweep analysis was performed under 1% strain at 0.1-100 rad/s. Shear recovery analysis was performed by subjecting the peptide sample to 1% strain for 20 min, then 200% for 1 min, and finally 1% for 20 min, allowing for disruption of the hydrogel and monitoring of G′ and G″ recovery.

[2] = Subcutaneous hydrogel implants, histology (persistence, degradation, host response); assay type: in vivo, mice; conditions: 3-21 days
Protocol: Subcutaneous experiments and histology. C57BL/6J female mice were purchased from The Jackson Laboratory at age 8-12 weeks for subcutaneous characterization experiments. Mice were housed under specific pathogen-free conditions in standard temperature and lighting conditions with free access to food and water, and experiments were conducted with approval of the Institutional Animal Care and Use Committee (IACUC) at Rice University and according to NIH guidelines. Mice were injected with 100 μL MDP hydrogels in each of four separate sites in the subcutaneous space of the dorsal flank after the skin was shaved and sterilized with alcohol. At days 3, 7, 14, and 21 the mice were euthanized and the dorsal skin around the entire implant was removed, fixed overnight in 10% neutral buffered formalin, processed and paraffin embedded, and finally sectioned at […] thickness for staining using standard Masson's trichrome or hematoxylin and eosin (H&E) procedures, as well as immunohistochemical analyses (e.g., anti-nitrotyrosine IHC, or α-SMA blood vessel analysis).
Evaluation of material biocompatibility, degradation, and immune response profile in vivo was performed by histological analysis of hydrogel implants injected subcutaneously in healthy mice. […]

B16-F0 melanoma tumors = assay: Tumor growth in the B16-F0 melanoma model; assay type: in vivo, mice; conditions: monotherapy, single intratumoral injection
Protocol: Evaluation of in vivo VEGF reduction using murine B16-F0 melanoma tumor model. C57BL/6J male mice were purchased from The Jackson Laboratory. Tumor inoculation was performed when mice reached 10-14 weeks of age. All experiments were performed with approval of IACUC at Baylor College of Medicine (BCM) and followed established protocols. B16-F0 melanoma cell line was purchased from American Type Culture Collection (ATCC) and maintained according to manufacturer instructions (DMEM high-glucose with 10% fetal bovine serum and 1% penicillin/streptomycin). C57BL/6J mice were injected subcutaneously (s.c.) with 3×10^5 B16-F0 cells in a single flank. Once tumors became palpable (day 7 post-inoculation) mice were injected intratumorally (i.t.) with either vehicle buffer control Hank's Balanced Salt Solution (HBSS), free L-NIL dissolved in HBSS at 20 mM, K2-MDP hydrogel at 1 wt. % (5.6 mM peptide), or L-NIL-MDP hydrogel at 1 wt. % (5.2 mM peptide, or approximately 20 mM L-NIL functional groups). All injections were done using 100 μL total injection volume.

[3] = CDN drug release kinetics from hydrogels; assay type: physicochemical
Protocol: Drug release kinetics. For release kinetics studies of CDN release from various hydrogel formulations, aliquots of CDN-loaded gel (30 μL each) were deposited into 96 well Falcon® flat bottom plates (Becton Dickinson Labware, Franklin Lakes, NJ). 30 μL gel was pipetted to generate a cylindrical puck in each well for each experiment. The pipetted gels were allowed to shear recover for approximately 5-10 min before adding 200 μL of the relevant buffer to the top of the gels (1× HBSS for all MDPs, 1× DPBS for collagen, Matrigel, 1× HBSS with 0.1 M CaCl2) for alginate, etc. according to the gelation requirements of the material). The addition of buffer was defined as t=0 for the beginning of release kinetics experiments. Table 1 summarizes the material conditions and preparation methods used for various comparative CDN delivery kinetics studies.
A Nanodrop 2000C Spectrophotometer (Thermo Scientific) was used to measure drug release by UV absorbance at 259 nm for CDN ML RR-S2 CDA, using an extinction coefficient of 24,000 M^−1cm^−1 (259 nm). Absorbance measurements were obtained by removing […] from the top of the liquid buffers above the loaded gels, over time measuring the increase in absorbance. Over the course of the first 24 hours, release of CDN was measured usually every 1-2 hours and converted to total percent released, with additional measurements also made every 24 hours for up to a week to establish when equilibrium had been reached.

CC(=N)NCCCC[C@H](NC(=O)[C@H](CCCCNC(C)=N)NC(=O)[C@H](CC(C)C)NC(=O)[C@H](CO)NC(=O)[C@H](CC(C)C)NC(=O)[C@H](CO)NC(=O)[C@H](CC(C)C)NC(=O)[C@H](CO)NC(=O)[C@H](CC(C)C)NC(=O)[C@H](CO)NC(=O)[C@H](CC(C)C)NC(=O)[C@H](CO)NC(=O)[C@H](CC(C)C)NC(=O)[C@H](CO)NC(=O)[C@H](CCCCNC(C)=N)NC(=O)[C@H](CCCCNC(C)=N)NC(C)=O)C(N)=O [L-NIL-MDP] (Ac-[X1][X1]SLSLSLSLSLSL[X1][X1]-NH2)
loss modulus (G″) [1]: 20-25 Pa and ~25 Pa | storage modulus (G′) [1]: 260-300 Pa and ~300 Pa | inflammatory reaction after injection (in words) [2]: does not cause a chronic inflammatory reaction | tumor growth reduction (in words) (B16-F0 melanoma tumors): no favorable effect on tumor growth reduction | CDN release profile (in words) [3]: comparable or even better controlled release
